Measured values taken from patent US12104195B2, “Reelin/VEGF-C production/activation promoter and skin external composition using the same” (Amorepacific Corporation, priority 2022, dated 2024).

Experiments:
reelin = assay: Reelin cytokine analysis (Human reelin ELISA Kit) in human dermal lymphatic endothelial cells; format: cell-based; settings: HDLEC, 48 hours, compared with DMSO control group (100%); extract 1-100 μg/ml, compound 100-2000 nmole; FIGS. 3 and 4
Protocol: Human dermal lymphatic endothelial cells were cultured in 6 well plates for 24 hours, while treated with DMSO as a control group (reference; 100%), treated with the fermented ginseng extract of the preparation example and the compound represented by Chemical Formula 1-1 (Sigma-Aldrich Co., Ltd.) at each concentration of 1 μg/ml, 10 μg/ml, 20 μg/ml, 50 μg/ml, and 100 μg/ml and at each concentration of 100 nmole, 250 nmole, 500 nmole, 1000 nmole, and 2000 nmole, cultured for 48 hours, and then measured with respect to production and activity of reelin through a reelin cytokine analysis according to a manual by using Human reelin ELISA Kit (Mybiosource, Inc., U.S.A.), and the results are shown in FIGS. 3 and 4.

VEGF-C = VEGF-C cytokine analysis (VEGFC Human ELISA Kit) in normal human epidermal keratinocytes; format: cell-based; settings: NHEK, 48 hours, compared with DMSO control group (100%); extract 1-100 μg/ml, compound 100-2000 nmoles; FIGS. 5 and 6
Protocol: Normal human epidermal keratinocytes were cultured in 6 well plates for 24 hours, while treated with DMSO as a control group (reference; 100%), treated with the fermented ginseng extract of the preparation example and the compound represented by Chemical Formula 1-1 (Sigma-Aldrich Co., Ltd.) at each concentration of 1, 10, 20, 50 and 100 μg/ml and at each concentration of 100, 250, 500, 1000, and 2000 nmoles, cultured for 48 hours, and then measured with respect to production and activity of VEGF-C through VEGF-C cytokine analysis by using VEGFC Human ELISA Kit (ThermoFisher Scientific, U.S.A.) according to a manual, and the results are shown in FIGS. 5 and 6.

Q: With `CC(C)=CCC[C@](C)(O[C@@H]1O[C@H](CO[C@@H]2O[C@H](CO)[C@@H](O)[C@H](O)[C@H]2O)[C@@H](O)[C@H](O)[C@H]1O)[C@H]1CC[C@]2(C)[C@@H]1[C@H](O)C[C@@H]1[C@@]3(C)CC[C@H](O[C@@H]4O[C@H](CO)[C@@H](O)[C@H](O)[C@H]4O)C(C)(C)[C@@H]3CC[C@]12C` as the compound, how does the “production and activity of reelin” value (reelin) read?
A: improved production and activity of reelin

Q: What about the “production and activity of VEGF-C” value (VEGF-C) of the same compound?
A: more improved the production and activity of VEGF-C
